Data published in the supplement of paper PMC10307832.

Assays:
Assay in all cases: relative viability (nuclei count vs DMSO), 5 days (fraction); higher = more cells survive
[1] = compound: COC1=C(C=C(C=C1)C2=CC3=NC=CN3C(=N2)NC4=C(C=CC=N4)C(=O)N)OC [BAY61-3606] + Cc1nc(NC(=O)N2CCC[C@H]2C(N)=O)sc1-c1ccnc(C(C)(C)C(F)(F)F)c1 [Alpelisib] (partner 2 µM)
Outline: (§1)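 Relative viability was taken as the ratio of nuclei in treated wells to nuclei in vehicle wells. Lung cancer cell lines in 1536-well plates received compounds by pin tool one day after seeding, either one drug alone or a fixed anchor-drug dose plus five library-drug doses (not always all listed) in √10 steps. Nuclei were counted on 4× images after 5 days of treatment, and values are medians of duplicate plates.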

[2] = compound: COc1cccc2c1C(=O)c1c(O)c3c(c(O)c1C2=O)C[C@@](O)(C(=O)CO)C[C@@H]3O[C@H]1C[C@H](N)[C@H](O)[C@H](C)O1 [Doxorubicin] + CC(=O)c1c(C)c2cnc(Nc3ccc(N4CCNCC4)cn3)nc2n(C2CCCC2)c1=O [Palbociclib] (partner 0.5 µM)
Outline: as §1

[3] = compound: COc1cccc2c1C(=O)c1c(O)c3c(c(O)c1C2=O)C[C@@](O)(C(=O)CO)C[C@@H]3O[C@H]1C[C@H](N)[C@H](O)[C@H](C)O1 [Doxorubicin] + CC(C)C[C@H](NC(=O)[C@H](Cc1ccccc1)NC(=O)c1cnccn1)B(O)O [Bortezomib] (partner 0.002 µM)
Outline: as §1

[4] = compound: COc1cccc2c1C(=O)c1c(O)c3c(c(O)c1C2=O)C[C@@](O)(C(=O)CO)C[C@@H]3O[C@H]1C[C@H](N)[C@H](O)[C@H](C)O1 [Doxorubicin] + NC(=O)Nc1cc(-c2cccc(F)c2)sc1C(=O)N[C@H]1CCCNC1 [AZD7762] (partner 0.2 µM)
Outline: as §1

Cell Line	relative viability ([1]; first compound 0.02 µM)	relative viability ([1]; first compound 0.06325 µM)	relative viability ([1]; first compound 0.2 µM)	relative viability ([1]; first compound 0.6325 µM)	relative viability ([1]; first compound 2 µM)	relative viability ([2]; first compound 0.001 µM)	relative viability ([2]; first compound 0.003162 µM)	relative viability ([2]; first compound 0.01 µM)	relative viability ([2]; first compound 0.03162 µM)	relative viability ([2]; first compound 0.1 µM)	relative viability ([3]; first compound 0.001 µM)	relative viability ([3]; first compound 0.003162 µM)	relative viability ([3]; first compound 0.01 µM)	relative viability ([3]; first compound 0.03162 µM)	relative viability ([3]; first compound 0.1 µM)	relative viability ([4]; first compound 0.001 µM)	relative viability ([4]; first compound 0.003162 µM)	relative viability ([4]; first compound 0.01 µM)	relative viability ([4]; first compound 0.03162 µM)	relative viability ([4]; first compound 0.1 µM)
NCI-H647	1.02	1.36	0.922	1.03	0.534	0.403	0.492	0.412	0.15	0.239	1.03	1.04	0.907	0.213	0.111	0.352	0.417	0.466	0.19	0.0766
LCLC-97TM1	0.232	–	0.244	0.231	0.238	0.229	0.205	0.222	0.199	0.238	0.528	0.434	0.265	0.151	0.0908	0.235	0.218	0.303	0.244	0.211
LOU-NH91	0.764	0.643	0.73	0.798	0.541	–	0.459	0.564	0.526	0.416	0.493	0.477	0.479	0.487	0.407	–	0.79	0.77	0.722	0.429
RERF-LC-KJ	0.957	0.751	0.765	0.853	0.629	1.07	1.15	0.921	0.542	0.653	1.03	1.2	1.03	0.809	0.967	1.04	1.1	0.872	0.866	0.896
NCI-H1437	0.987	0.988	0.935	1.06	0.903	0.315	0.327	0.294	0.295	0.26	0.491	0.605	0.472	0.205	0.185	1.11	0.994	1.04	1.09	0.877
NCI-H2087	1.15	1.17	1.02	1.16	0.949	0.259	0.216	0.235	0.176	0.227	0.6	0.7	0.869	0.678	0.55	1.3	1.32	1.32	1.34	1.17
